Counter-ions that a name gives are not always drawn.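 Results reflect a 48-hour exposure of cells in 96-well plates to compound at five concentrations. GI50 is the concentration that inhibits growth by half.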 Activity calls are given as the source filed them. No stated cut-off is given here; in the data, active = GI50 up to about 1.1 µM and inactive = higher.
Columns and labels:
Assay in all cases: growth of human tumour cells (NCI), 48 h
[1] = system: OVCAR-5
[2] = system: HCC 2998
[3] = system: UO-31
[4] = system: A549
[5] = system: COLO 205
[6] = system: SK-MEL-28
[7] = system: SK-MEL-5
[8] = system: NCI-H522
[9] = system: 786-0
[10] = system: SF-268
[11] = system: TK-10
[12] = system: T47D
[13] = system: HOP-62
[14] = system: IGROV-1
[15] = system: LOX IMVI
[16] = system: SNB-19
[17] = system: SF-539
[18] = system: SW-620
[19] = system: HCT-15
[20] = system: SNB-75
[21] = system: DU-145
[22] = system: SK-OV-3
[23] = system: OVCAR-3
[24] = system: MOLT-4
[25] = system: NCI/ADR-RES
[26] = system: PC-3
[27] = system: HT-29
[28] = system: U-251
[29] = system: RPMI-8226
[30] = system: Hs-578T
[31] = system: HL-60
[32] = system: OVCAR-4
[33] = system: EKVX
[34] = system: M14
[35] = system: BT-549
[36] = system: NCI-H460
[37] = system: SF-295
[38] = system: NCI-H226
[39] = system: UACC-257
[40] = system: KM12
[41] = system: HOP-92
[42] = system: SK-MEL-2
[43] = system: Malme-3M
[44] = system: SN12C
[45] = system: HCT-116
[46] = system: CAKI-1
[47] = system: NCI-H23
[48] = system: OVCAR-8
[49] = system: RXF 393
[50] = system: K562
[51] = system: ACHN
[52] = system: CCRF-CEM
[53] = system: MCF7
[54] = system: SR
[55] = system: A498
[56] = system: MDA-N
[57] = system: MDA-MB-435
[58] = system: MDA-MB-231
[59] = system: UACC-62

Measured: GI50

CN(C)NC1=NS(=O)(=O)c2cc3c(=O)n(C)[nH]c3cc2S1
inactive: [1] > 10 µM | [2] > 10 µM | [3] > 10 µM | [4] > 10 µM | [5] > 10 µM | [6] > 10 µM | [7] > 10 µM | [8] > 10 µM | [9] > 10 µM | [10] > 10 µM | [11] > 10 µM | [12] > 10 µM | [13] > 10 µM | [14] > 10 µM | [15] > 10 µM | [16] > 10 µM | [17] > 10 µM | [18] > 10 µM | [20] > 10 µM | [21] > 10 µM | [22] > 10 µM | [23] > 10 µM | [24] > 10 µM | [25] > 10 µM | [26] > 10 µM | [27] > 10 µM | [28] > 10 µM | [29] > 10 µM | [30] > 10 µM | [31] > 10 µM | [32] > 10 µM | [33] > 10 µM | [34] > 10 µM | [35] > 10 µM | [36] > 10 µM | [37] > 10 µM | [38] > 10 µM | [39] > 10 µM | [40] > 10 µM | [41] > 10 µM | [42] > 10 µM | [43] > 10 µM | [44] > 10 µM | [45] > 10 µM | [46] > 10 µM | [47] > 10 µM | [48] > 10 µM | [49] > 10 µM | [50] > 10 µM | [51] > 10 µM | [52] > 10 µM | [53] 5.05 µM | [54] > 10 µM | [55] > 10 µM | [56] > 10 µM
> 10 µM: [19]

COc1ccc2nc3cc(Cl)ccc3c(NCCCN(Cc3cc(OC)c(OC)c(OC)c3)Cc3cc(OC)c(OC)c(OC)c3)c2c1
active: [58] < 0.01 µM | [45] 0.174 µM
> 10 µM: [19]
inactive: [1] 13.3 µM | [2] 14.3 µM | [3] 10.6 µM | [4] 14.6 µM | [5] 4.3 µM | [6] 16.4 µM | [7] 1.29 µM | [8] 9.48 µM | [9] 12.1 µM | [10] 13.5 µM | [11] 23.1 µM | [12] 23 µM | [57] > 10 µM | [13] 4.65 µM | [14] 15.3 µM | [16] 17.4 µM | [17] 2.2 µM | [18] 1.14 µM | [21] 12.8 µM | [22] 17.1 µM | [23] 19 µM | [24] 1.34 µM | [25] 23.4 µM | [26] 10.4 µM | [27] 2.31 µM | [28] 4.32 µM | [29] 3.07 µM | [59] 18.4 µM | [30] 8.55 µM | [33] 13.5 µM | [34] 1.78 µM | [35] 14.1 µM | [36] 6.84 µM | [37] 3.33 µM | [38] 14 µM | [39] 13.9 µM | [40] 13.8 µM | [41] 10.1 µM | [42] 25.1 µM | [43] 17.7 µM | [44] 16.8 µM | [46] 14.4 µM | [47] > 10 µM | [48] 12.1 µM | [49] 3.38 µM | [50] 1.19 µM | [51] 11.7 µM | [53] 13.6 µM | [54] 2.31 µM

CN(C)CCC=C1c2ccccc2C=Cc2ccccc21 [CYCLOBENZAPRINE HYDROCHLORIDE]
active: [38] 0.0374 µM
17.7 µM: [19]
inactive: [1] 15 µM | [2] 5.4 µM | [3] 15.8 µM | [4] 20 µM | [5] 14.4 µM | [6] 16.1 µM | [7] 14 µM | [8] 17.9 µM | [9] 16.1 µM | [10] 15.8 µM | [11] 16.2 µM | [12] 19.5 µM | [57] 16.7 µM | [13] 16.5 µM | [14] 16.7 µM | [15] 16.7 µM | [16] 19.8 µM | [18] 17.1 µM | [20] 14.7 µM | [21] 18 µM | [22] 16.1 µM | [23] 15.5 µM | [24] 16.8 µM | [58] 17.3 µM | [25] 16.3 µM | [26] 16.6 µM | [27] 5.25 µM | [28] 16.3 µM | [29] 18.3 µM | [59] 16.6 µM | [30] 18.8 µM | [32] 23.1 µM | [33] 10.9 µM | [34] 15.8 µM | [35] 17.4 µM | [36] 15.4 µM | [37] 17.2 µM | [39] 14.8 µM | [40] 18.5 µM | [41] 15.6 µM | [42] 16.3 µM | [43] 16.9 µM | [44] 16.9 µM | [45] 15 µM | [46] 17 µM | [47] 18.7 µM | [48] 16 µM | [49] 14.5 µM | [50] 18.5 µM | [51] 17.2 µM | [53] 16.3 µM | [54] 17.9 µM | [55] 15.8 µM

From ChEMBL document CHEMBL1201862, “PubChem BioAssay data set” (2004)
